According to US8173689B2 (Novartis AG, priority 2006, dated 2012):
Like-named read-outs stand apart in the source and are kept apart here.

Legend:
kinase domain of PDGFRβ = molecular target: T1, kinase domain of PDGFRβ (Homo sapiens, UniProt P09619); test: Inhibition of PDGFRb kinase signaling in an in vitro biochemical assay (alphascreen); conditions: tested at about 1 μM; for inhibition at 1 µM: read-out: PDGFRβ percent inhibition
T1 construct: The kinase domain of PDGFRβ was assayed in 50 mM Hepes; purchased Invitrogen P3082
T1 sequence (P09619 600-962 limits assumed): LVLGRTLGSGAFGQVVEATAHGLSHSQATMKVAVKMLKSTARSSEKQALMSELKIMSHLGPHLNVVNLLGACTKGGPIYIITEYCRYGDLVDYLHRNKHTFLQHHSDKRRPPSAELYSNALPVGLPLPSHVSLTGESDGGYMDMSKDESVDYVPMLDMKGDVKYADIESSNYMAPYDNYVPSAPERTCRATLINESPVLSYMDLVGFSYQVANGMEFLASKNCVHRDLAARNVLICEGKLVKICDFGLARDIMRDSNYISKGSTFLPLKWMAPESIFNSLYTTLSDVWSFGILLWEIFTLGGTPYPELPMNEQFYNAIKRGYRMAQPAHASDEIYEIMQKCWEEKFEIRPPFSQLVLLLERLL

[1] = molecular target: T2, full-length human CSF-1R receptor (Homo sapiens, UniProt P07333); test: In vitro inhibition of CSF-1R receptor tyrosine phosphorylation in transfected HEK293H cells stimulated with MCSF; type: cell-based; conditions: tested at about 1 μM; for inhibition at 1 µM: HEK293-H, read-out: pCSF1R percent inhibition
T2 construct: transfected with the full-length human CSF-1R receptor cloned in house; expressed in transfected cells; host or cells: HEK293H (Invitrogen Cat. #11631017)
T2 sequence (P07333 20-972): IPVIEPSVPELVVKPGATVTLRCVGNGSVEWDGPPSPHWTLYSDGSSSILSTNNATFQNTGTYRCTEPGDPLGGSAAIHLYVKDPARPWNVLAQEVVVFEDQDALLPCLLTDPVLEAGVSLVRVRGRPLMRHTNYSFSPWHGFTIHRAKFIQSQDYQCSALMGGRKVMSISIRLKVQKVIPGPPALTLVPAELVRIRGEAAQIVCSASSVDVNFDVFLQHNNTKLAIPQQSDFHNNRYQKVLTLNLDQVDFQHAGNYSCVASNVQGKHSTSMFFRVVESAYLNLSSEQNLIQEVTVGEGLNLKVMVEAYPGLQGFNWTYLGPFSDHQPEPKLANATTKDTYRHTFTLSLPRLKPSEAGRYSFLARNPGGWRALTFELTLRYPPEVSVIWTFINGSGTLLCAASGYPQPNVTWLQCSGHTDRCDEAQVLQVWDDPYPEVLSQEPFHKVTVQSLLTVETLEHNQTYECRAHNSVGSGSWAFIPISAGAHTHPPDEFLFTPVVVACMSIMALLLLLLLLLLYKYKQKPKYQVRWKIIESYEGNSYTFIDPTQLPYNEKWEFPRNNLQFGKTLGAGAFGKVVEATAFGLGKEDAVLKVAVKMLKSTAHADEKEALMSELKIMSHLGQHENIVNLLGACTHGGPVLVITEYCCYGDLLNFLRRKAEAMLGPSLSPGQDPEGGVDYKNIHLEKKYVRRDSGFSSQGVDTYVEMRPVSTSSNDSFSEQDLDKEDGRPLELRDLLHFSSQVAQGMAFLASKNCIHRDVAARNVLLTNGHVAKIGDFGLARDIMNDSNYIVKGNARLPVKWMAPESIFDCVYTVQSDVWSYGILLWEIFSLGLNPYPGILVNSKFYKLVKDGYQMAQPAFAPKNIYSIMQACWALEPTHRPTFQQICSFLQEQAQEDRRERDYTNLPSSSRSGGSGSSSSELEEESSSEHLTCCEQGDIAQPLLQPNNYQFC
Procedure: The lysate was then transferred to total CSF-1R antibody coated 96-well plates that had already been blocked with 3% Blocker A from Mesoscale discovery (MSD) for 2 hours and washed afterwards. Lysates were incubated overnight at 4° C. and the plates were then washed 4× with MSD Tris Wash Buffer. […] The plates were read on the Sector 6000 instrument (MSD). Raw data was imported in Abase and EC50s calculated with XL-fit data analysis software.

[2] = test system: MNFS60 (murine AML cells); test: Cell viability assay in MCSF dependent MNFS60 cells (Cell Titer Glo); type: cell-based; conditions: tested at about 1 μM; for inhibition at 1 µM: Mus musculus, read-out: M-NFS-60 CP percent inhibition
Summary of the method: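 3-fold DMSO dilution series (500× stocks); MCSF 10 ng/ml final; 72 hrs, 37° C., 5% CO2; CellTiter-Glo read-out; n=3; EC50 fitted.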

[3] = molecular target: T3, cytoplasmic domain of the human CSF-1R (Homo sapiens, UniProt P07333); test: In vitro kinase assay for colony stimulating factor-1 receptor (AlphaScreen); type: biochemical; conditions: tested at about 1 μM; for inhibition at 1 µM: read-out: CSF-1R percent inhibition
T3 construct: Recombinant protein corresponding to the cytoplasmic domain of the human CSF-1R; purchased Invitrogen Corporation, Carlsbad, Calif; PV3249
T3 sequence (P07333 539-972 limits assumed): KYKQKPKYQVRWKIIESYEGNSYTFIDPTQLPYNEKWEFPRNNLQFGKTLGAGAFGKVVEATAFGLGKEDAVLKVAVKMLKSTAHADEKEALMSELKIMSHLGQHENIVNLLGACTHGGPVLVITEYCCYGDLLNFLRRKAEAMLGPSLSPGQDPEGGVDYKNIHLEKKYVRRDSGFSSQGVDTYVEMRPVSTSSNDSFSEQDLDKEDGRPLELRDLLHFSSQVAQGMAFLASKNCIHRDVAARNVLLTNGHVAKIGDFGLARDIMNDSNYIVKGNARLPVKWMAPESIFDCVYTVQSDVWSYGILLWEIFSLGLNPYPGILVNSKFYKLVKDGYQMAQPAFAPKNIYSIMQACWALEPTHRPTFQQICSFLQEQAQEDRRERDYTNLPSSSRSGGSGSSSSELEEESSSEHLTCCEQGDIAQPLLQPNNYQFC
Summary of the method: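 Test compounds, serially diluted threefold starting at 25 μM, were mixed with Hepes buffer (pH 7.5, Mg2+/Mn2+, DTT, BSA, Tween 80) containing 1 μM ATP. Recombinant kinase was present at 4 nM. After stopping, beads were added and plates were read the next day by AlphaScreen.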

kinase domain of cKIT = molecular target: T4, kinase domain of cKIT (Homo sapiens, UniProt P10721); test: Inhibition of cKIT kinase signaling in an in vitro biochemical assay (alphascreen); conditions: tested at about 1 μM; for inhibition at 1 µM: read-out: cKit percent inhibition
T4 construct: The kinase domain of cKIT was assayed in 50 mM Hepes; purchased Upstate 14-559
T4 sequence (P10721 589-937 limits assumed): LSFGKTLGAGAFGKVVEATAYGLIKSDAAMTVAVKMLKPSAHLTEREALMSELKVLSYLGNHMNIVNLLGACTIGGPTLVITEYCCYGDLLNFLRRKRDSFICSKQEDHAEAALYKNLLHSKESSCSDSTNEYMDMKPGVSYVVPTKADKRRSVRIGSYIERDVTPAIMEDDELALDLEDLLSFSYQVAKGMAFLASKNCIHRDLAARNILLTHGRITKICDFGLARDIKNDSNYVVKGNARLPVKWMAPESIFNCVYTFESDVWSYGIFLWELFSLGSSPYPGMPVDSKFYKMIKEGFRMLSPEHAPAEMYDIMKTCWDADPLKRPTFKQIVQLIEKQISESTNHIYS

Row | Compound | inhibition at 1 µM (kinase domain of PDGFRβ) [%] | inhibition at 1 µM ([1]; HEK293H cells) [%] | inhibition at 1 µM [3] [%] | inhibition at 1 µM (kinase domain of cKIT) [%] | inhibition at 1 µM (kinase domain of PDGFRβ; compounds of Table 3) [%] | inhibition at 1 µM ([1]; compounds of Table 3) [%] | inhibition at 1 µM ([2]; compounds of Table 3) [%] | inhibition at 1 µM ([3]; compounds of Table 3) [%] | inhibition at 1 µM (kinase domain of cKIT; compounds of Table 3) [%] | also measured
1 | CNC(=O)c1cc(Oc2ccc3nc(NCc4ccc(OC)c(OC)c4Cl)oc3c2)ccn1 [Compound 117, 4-[2-(2-Chloro-3,4-dimethoxy-benzylamino)-benzooxazol-6-yloxy]-pyridine-2-carboxylic acid methylamide] | 0 | 88 | 100 | 96 |  |  |  |  |  | inhibition at 1 µM ([2]; MNFS60 cells): 61%
2 | 4-[2-(2-Chloro- benzylamino)-benzooxazol- 6-yloxy]-pyridin-2- carboxylic acid methylamide [Compound 8] |  |  |  |  |  |  |  |  |  | PDGFRβ percent inhibition (kinase domain of PDGFRβ; compounds of Table 4): 35%; pCSF1R percent inhibition ([1]; compounds of Table 4): 98%; M-NFS-60 CP percent inhibition ([2]; compounds of Table 4): 100%; CSF-1R percent inhibition ([3]; compounds of Table 4): 100%; cKit percent inhibition (kinase domain of cKIT; compounds of Table 4): 25%
3 | CNC(=O)c1cc(Oc2ccc3nc(NCc4cccc(Cl)c4Cl)oc3c2)ccn1 [Compound 77, 4-[2-(2,3-Dichloro-benzylamino)-benzooxazol-6-yloxy]-pyridine-2-carboxylic acid methylamide] | 15 | 94 | 100 | 92 |  |  |  |  |  | inhibition at 1 µM ([2]; MNFS60 cells): 79%
4 | CNC(=O)c1cc(Oc2ccc3nc(N[C@H]4CCCN(C(=O)C(C)C)C4)sc3c2)ccn1 [Example 334, (S)-4-(2-(1-isobutyrylpiperidin-3-ylamino)benzo[d]thiazol-6-yloxy)-N-methylpicolinamide] | 15 | 71 | 100 | 20 |  |  |  |  |  | inhibition at 1 µM ([2]; MCSF dependent MNFS60 cells): 67%
5 | O[C@H]1Cc2ccccc2[C@H]1Nc1nc2ccc(Oc3ccnc4ccccc34)cc2s1 [Example 237, (1R,2S)-1-(6-(quinolin-4-yloxy)benzo[d]thiazol-2-ylamino)-2,3-dihydro-1H-inden-2-ol] |  |  |  |  | 13 | 94 | 100 | 100 | 24 | 
6 | CNC(=O)c1cc(Oc2ccc3nc(Nc4cccc(OC)c4)sc3c2)ccn1 [Compound 32] |  |  |  |  | 11 | 93 | 65 | 100 | 45 | 
7 | CNC(=O)c1cc(Oc2ccc3nc(N[C@@H]4c5ccccc5C[C@@H]4O)oc3c2)ccn1 [Compound 50, 4-[2-((1R,2S)-2-Hydroxy-indan-1-ylamino)-benzooxazol-6-yloxy]-pyridine-2-carboxylic acid methylamide] | 8 |  | 56 | 59 | 14 |  | 18 | 99 | 13 | inhibition at 1 µM (kinase domain of PDGFRβ; compounds of Table 4): 14%; inhibition at 1 µM ([1]; compounds of Table 4): 99%; inhibition at 1 µM ([2]; compounds of Table 4): 100%; inhibition at 1 µM ([3]; compounds of Table 4): 100%; inhibition at 1 µM (kinase domain of cKIT; compounds of Table 4): 10%
8 | CNC(=O)c1cc(Oc2ccc3nc(N[C@@H]4C[C@H]5CC[C@@H]4C5)sc3c2)ccn1 [Compound 128] |  |  |  |  | 20 | 88 | 82 | 100 | 29 | 
9 | Nc1ncc(-c2cc(Oc3ccc4nc(N[C@@H]5CCCC[C@H]5O)sc4c3)ccn2)cn1 [Example 346, (1R,2R)-2-(6-(2-(2-aminopyrimidin-5-yl)pyridin-4-yloxy)benzo[d]thiazol-2-ylamino)cyclohexanol] | 0 | 84 | 100 | 13 |  |  |  |  |  | inhibition at 1 µM ([2]; MCSF dependent MNFS60 cells): 67%
10 | CNC(=O)c1cc(Oc2ccc3nc(NCc4ccc(=O)[nH]c4)sc3c2)ccn1 [Compound 89] |  |  |  |  | 2 | 65 | 15 | 100 | 15 | 
11 | CNC(=O)c1cc(Oc2ccc3nc(N[C@@H](C)c4ccccc4OC)sc3c2)ccn1 [Example 328, (S)-4-(2-(1-(2-methoxyphenyl)ethylamino)benzo[d]thiazol-6-yloxy)-N-methylpicolinamide] | 0 | 80 | 100 | 14 |  |  |  |  |  | inhibition at 1 µM ([2]; MCSF dependent MNFS60 cells): 63%
